Laboratory results reported in US20250092065A1, “2-(INDAZOL-5-YL)-6-(PIPERIDIN-4-YL)-1,7-NAPHTHYRIDINE DERIVATIVES AND RELATED COMPOUNDS AS MODULATORS FOR SPLICING NUCLEIC ACIDS AND FOR THE TREATMENT OF PROLIFERATIVE DISEASES” (REMIX THERAPEUTICS INC., priority 2022, published 2025).
Structures can show the parent of a compound that is named as a salt. Where two headings read alike, the source gives them in different places.

Legend:
[1] = system: HTT mRNA; assay: RT-qPCR splicing assay, HTT mRNA canonical (CJ) and alternative (AJ) junction; format: cell-based, human; conditions: Homo sapiens; for AC50: HTT alternative junction mRNA, read-out: HTT AJ (increase in AJ mRNA, AC50)
In short: (§1)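 Junction-specific RT-qPCR read-out: CJ and AJ isoform levels, housekeeper-normalized (GAPDH/GUSB/PPIA), ΔΔCt vs DMSO, converted to RQ then % response. Cells: A673 (DMEM/10% FBS, adhered 24 h) or K562 (IMDM/10% FBS). Compound 11-pt 3-fold, top 10 uM, 24 h, 37 °C.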

[2] = system: SMN2 mRNA; assay: RT-qPCR splicing assay, SMN2 mRNA; format: cell-based, human; conditions: Homo sapiens, canonical junction qPCR panel, Table 4; read-out: SMN2 IC50 (decrease in CJ mRNA levels)
In short: as §1

[3] = system: Target C; assay: RT-qPCR canonical junction panel assay, Target C mRNA; format: cell-based; conditions: Table 4, read-out: Target C IC50 (decrease in CJ mRNA levels)
In short: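 IC50 is the concentration giving 50% CJ decrease, from a 4-parameter logistic fit of percent response; response derived from ΔΔCt against housekeeper and DMSO over a fixed ΔCt window, with canonical exon-junction qPCR in compound-treated K562 or A673 cells.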

[4] = HTT canonical junction mRNA, RT-qPCR, read-out: HTT CJ (decrease in CJ mRNA levels, IC50)
[5] = canonical junction qPCR panel, Table 4, read-out: HTT IC50 (decrease in CJ mRNA levels)

Compound | IC50 [1, 4] | IC50 [1, 5] | IC50 [2] | IC50 [3] | AC50 ([1]; RT-qPCR)
Cn1cc2cc(-c3ccc4cc(N5CCNCC5)cc(F)c4n3)cc(F)c2n1 [Compound 516, 8-fluoro-2-(7-fluoro-2-methylindazol-5-yl)-6-(piperazin-1-yl)quinoline] | 100 to 1000 nM | 100 to 1000 nM | < 100 nM | 100 to 1000 nM | 100 to 1000 nM
Cc1cn2cc(-c3ccc4cc(N5CCNCC5)cc(F)c4n3)cc(F)c2n1 [Compound 517, 8-fluoro-2-{8-fluoro-2-methylimidazo[1,2-a]pyridin-6-yl}-6-(piperazin-1-yl)quinoline] | 100 to 1000 nM | 100 to 1000 nM | < 100 nM | 100 to 1000 nM | 100 to 1000 nM
Cn1cc2cc(-c3nc(C4CC4)c4cc(N5CCNCC5)ccc4n3)c(O)c(F)c2n1 [Compound 518, 5-[4-cyclopropyl-6-(piperazin-1-yl)quinazolin-2-yl]-7-fluoro-2-methylindazol-6-ol; trifluoroacetic acid] | 1000 to 10000 nM | 1000 to 10000 nM | < 100 nM | > 10000 nM | 1000 to 10000 nM
Cc1c(O)c(-c2ncc3cc(N4C[C@@H](C)N[C@@H](C)C4)ccc3n2)cc2cn(C)nc12 [Compound 525, 5-{6-[(3R,5S)-3,5-dimethylpiperazin-1-yl]quinazolin-2-yl}-2,7-dimethylindazol-6-ol] | 100 to 1000 nM | 100 to 1000 nM | < 100 nM | 1000 to 10000 nM | 100 to 1000 nM
Cc1c(O)c(-c2ncc3nc(N4C[C@@H](C)N[C@@H](C)C4)ccc3n2)cc2cn(C)nc12 [Compound 526, 5-{6-[(3R,5S)-3,5-dimethylpiperazin-1-yl]pyrido[3,2-d]pyrimidin-2-yl}-2,7-dimethylindazol-6-ol] | 100 to 1000 nM | 100 to 1000 nM | < 100 nM | 1000 to 10000 nM | 1000 to 10000 nM
CNC(=O)c1nc(-c2cc3cn(C)nc3c(F)c2O)nc2ccc(N3C[C@@H](C)N[C@@H](C)C3)cc12 [Compound 527, 6-[(3R,5S)-3,5-dimethylpiperazin-1-yl]-2-(7-fluoro-6-hydroxy-2-methylindazol-5-yl)-N-methylquinazoline-4-carboxamide] | < 100 nM | < 100 nM | < 100 nM | 100 to 1000 nM | 100 to 1000 nM
CNC(=O)c1nc(-c2cc3cn(C)nc3c(F)c2O)nc2ccc(N3CCC(N(C)C)CC3)cc12 [Compound 528, 6-[4-(dimethylamino)piperidin-1-yl]-2-(7-fluoro-6-hydroxy-2-methylindazol-5-yl)-N-methylquinazoline-4-carboxamide] | 100 to 1000 nM | 100 to 1000 nM | < 100 nM | 1000 to 10000 nM | 1000 to 10000 nM
CNC(=O)c1nc(-c2cc3cn(C)nc3c(F)c2O)nc2ccc(N3CCN[C@@H](C)C3)cc12 [Compound 529, 2-(7-fluoro-6-hydroxy-2-methylindazol-5-yl)-N-methyl-6-[(3S)-3-methylpiperazin-1-yl]quinazoline-4-carboxamide] | 100 to 1000 nM | 100 to 1000 nM | < 100 nM | 1000 to 10000 nM | 100 to 1000 nM
CNC(=O)c1nc(-c2cc3cn(C)nc3cc2O)nc2ccc(N3CCN[C@@H](C)C3)cc12 [Compound 530, 2-(6-hydroxy-2-methylindazol-5-yl)-N-methyl-6-[(3S)-3-methylpiperazin-1-yl]quinazoline-4-carboxamide] | 1000 to 10000 nM | 1000 to 10000 nM | < 100 nM | > 10000 nM | 1000 to 10000 nM
CNC(=O)c1nc(-c2cc3cn(C)nc3cc2O)nc2ccc(N3C[C@@H](C)N[C@@H](C)C3)cc12 [Compound 531, 6-[(3R,5S)-3,5-dimethylpiperazin-1-yl]-2-(6-hydroxy-2-methylindazol-5-yl)-N-methylquinazoline-4-carboxamide] | 1000 to 10000 nM | 1000 to 10000 nM | < 100 nM | > 10000 nM | > 10000 nM
CNC(=O)c1nc(-c2cc3cn(C)nc3c(C)c2O)nc2ccc(N3C[C@@H](C)N[C@@H](C)C3)nc12 [Compound 534, 6-[(3R,5S)-3,5-dimethylpiperazin-1-yl]-2-(6-hydroxy-2,7-dimethylindazol-5-yl)-N-methylpyrido[3,2-d]pyrimidine-4-carboxamide] | > 10000 nM | > 10000 nM | < 100 nM | > 10000 nM | > 10000 nM
CCNC(=O)c1nc(-c2cc3cn(C)nc3c(C)c2O)nc2ccc(N3C[C@@H](C)N[C@@H](C)C3)cc12 [Compound 535, 6-[(3R,5S)-3,5-dimethylpiperazin-1-yl]-N-ethyl-2-(6-hydroxy-2,7-dimethylindazol-5-yl)quinazoline-4-carboxamide] | < 100 nM | < 100 nM | < 100 nM | 1000 to 10000 nM | 100 to 1000 nM
CNC(=O)c1nc(-c2cc3cn(C)nc3c(C)c2O)nc2ccc(N3CC[C@@H](NC)C3)cc12 [Compound 536, 2-(6-hydroxy-2,7-dimethylindazol-5-yl)-N-methyl-6-[(3R)-3-(methylamino)pyrrolidin-1-yl]quinazoline-4-carboxamide] | < 100 nM | < 100 nM | < 100 nM | < 100 nM | < 100 nM
CNC(=O)c1nc(-c2cc3cn(C)nc3c(C)c2O)nc2ccc(N3CC[C@H](NC)C3)cc12 [Compound 537, 2-(6-hydroxy-2,7-dimethylindazol-5-yl)-N-methyl-6-[(3S)-3-(methylamino)pyrrolidin-1-yl]quinazoline-4-carboxamide] | < 100 nM | < 100 nM | < 100 nM | 100 to 1000 nM | 100 to 1000 nM
Cc1c(O)c(-c2nc(C(=O)NC(C)C)c3cc(N4C[C@@H](C)N[C@@H](C)C4)ccc3n2)cc2cn(C)nc12 [Compound 539, 6-[(3R,5S)-3,5-dimethylpiperazin-1-yl]-2-(6-hydroxy-2,7-dimethylindazol-5-yl)-N-isopropylquinazoline-4-carboxamide] | < 100 nM | < 100 nM | < 100 nM | 100 to 1000 nM | < 100 nM
Cc1c(O)c(-c2nc(C(=O)NC3CCC3)c3cc(N4C[C@@H](C)N[C@@H](C)C4)ccc3n2)cc2cn(C)nc12 [Compound 540] | 1000 to 10000 nM | 1000 to 10000 nM | < 100 nM | > 10000 nM | 100 to 1000 nM

Now from value to compound, other results behind:

IC50 [1, 4] | IC50 [1, 5] | IC50 [2] | IC50 [3] | Compound | AC50 ([1]; RT-qPCR)
> 10000 nM | > 10000 nM | < 100 nM | > 10000 nM | Cc1c(O)c(-c2nc(-c3cncs3)c3cc(N4CCNCC4)ccc3n2)cc2cn(C)nc12 [Compound 519, 2,7-dimethyl-5-[6-(piperazin-1-yl)-4-(1,3-thiazol-5-yl)quinazolin-2-yl]indazol-6-ol] | > 10000 nM
100 to 1000 nM | 100 to 1000 nM | < 100 nM | 1000 to 10000 nM | Cc1c(O)c(-c2ncc3cc(N4CCNCC4)ccc3n2)cc2cn(C)nc12 [Compound 520, 2,7-dimethyl-5-[6-(piperazin-1-yl)quinazolin-2-yl]indazol-6-ol] | 100 to 1000 nM
1000 to 10000 nM | 1000 to 10000 nM | < 100 nM | > 10000 nM | Cc1c(O)c(-c2nc(-c3nnc[nH]3)c3cc(N4CCNCC4)ccc3n2)cc2cn(C)nc12 [Compound 522, 2,7-dimethyl-5-[6-(piperazin-1-yl)-4-(4H-1,2,4-triazol-3-yl)quinazolin-2-yl]indazol-6-ol; bis(trifluoroacetic acid)] | > 10000 nM
100 to 1000 nM | 100 to 1000 nM | < 100 nM | 1000 to 10000 nM | Cc1c(O)c(-c2nc(C(N)=O)c3cc(N4CCNCC4)ccc3n2)cc2cn(C)nc12 [Compound 523, 2-(6-hydroxy-2,7-dimethylindazol-5-yl)-6-(piperazin-1-yl) quinazoline-4-carboxamide] | 100 to 1000 nM
> 10000 nM | > 10000 nM | 1000 to 10000 nM | > 10000 nM | Cc1c(O)c(-c2nc(C(=O)O)c3cc(N4CCNCC4)ccc3n2)cc2cn(C)nc12 [Compound 524, 2-(6-hydroxy-2,7-dimethylindazol-5-yl)-6-(piperazin-1-yl) quinazoline-4-carboxylic acid] | > 10000 nM
100 to 1000 nM | 100 to 1000 nM | < 100 nM | > 10000 nM | CNC(=O)c1nc(-c2cc3cn(C)nc3c(C)c2O)nc2ccc(N3CCNC4(CC4)C3)cc12 [Compound 532, 6-{4,7-diazaspiro[2.5]octan-7-yl}-2-(6-hydroxy-2,7-dimethylindazol-5-yl)-N-methylquinazoline-4-carboxamide] | 100 to 1000 nM
1000 to 10000 nM | 1000 to 10000 nM | < 100 nM | > 10000 nM | CNC(=O)c1nc(-c2cc3cn(C)nc3c(C)c2O)nc2ccc(N3CCNCC3)nc12 [Compound 533, 2-(6-hydroxy-2,7-dimethylindazol-5-yl)-N-methyl-6-(piperazin-1-yl)pyrido[3,2-d]pyrimidine-4-carboxamide] | 1000 to 10000 nM
1000 to 10000 nM | 1000 to 10000 nM | 100 to 1000 nM | 1000 to 10000 nM | Cc1c(O)c(-c2nc(-c3c[nH]nn3)c3cc(N4CCNCC4)ccc3n2)cc2cn(C)nc12 [Compound 538, 2,7-dimethyl-5-[6-(piperazin-1-yl)-4-(1H-1,2,3-triazol-4-yl)quinazolin-2-yl]indazol-6-ol hydrochloride] | 1000 to 10000 nM
